Read-outs that look alike come from different tables or passages of the source.
What was measured:
[1] = biological target: human Fatty Acid Amide Hydrolase (FAAH) (Homo sapiens (Human), UniProt O00519); test: biochemical; details: for inhibition at 0.1 µM: read-out: hFAAH % inhibition at 100 nM, 100 nM (tier I)
Method: Material and Reagents: All reagents were purchased from Sigma-Aldrich unless specified. […] Chaperone protein groEL-groES in pGRO7 plasmid (Takara Bio Inc, Japan) was co-expressed with Fatty Acid Amide Hydrolase (FAAH) to improve solubility of the protein expressed in E coli. […] Briefly, the bacterial cultures in Luria Broth (2 L) were induced with arabinose (2 mM) and Isopropyl (β-D-1-thiogalactopyranoside, IPTG (1 mM), for 20 h at room temperature. The cultures were centrifuged at 1200×g for 10 min and the cell pellet was resuspended in 100 mL buffer containing of 20 mM NaPi (pH 7.4), 100 mM NaCl, Benzonase (500u), Aprotinin (1 μg/mL) and Leupeptin (1 μg/mL). Cells were lyzed by sonication (Amp 20%, Pulse 15 s×15, on ice) and the cell debris removed by centrifugation at 5000×g for 20 min. The supernatant was enriched via ultracentrifugation at 100,000×g for 1 h and the cell pellet was resuspended in 16 mL buffer containing 20 mM NaPi (pH 7.8), 500 mM NaCl, 1% Triton X-100. The resuspended cell extract was subjected to ultra-centrifugation at 100,000×g for 1 h and the enriched supernatant was used in the in vitro assay. All protein extraction steps were carried out on ice or at 4° C.
The assay was carried out in 200 μL volume in a 96-well black polystyrene plate (Greiner Bio-one, Germany). Each reaction consisted of human Fatty Acid Amide Hydrolase (FAAH) protein and 10 μM AAMCA in assay buffer containing 50 mM HEPES, 1 mM EDTA and 0.1% BSA, pH 7.4. The reaction was incubated with 2 μL of varying concentrations of inhibitor in DMSO (final concentration of DMSO 1%) with shaking for 1 min and monitored for increase in fluorescence in kinetic mode for 50 min. […] Rate of reaction as a function of the concentration of the inhibitor was used to determine the IC50 of the inhibitors. Data was analyzed using GraphPad Prism 5 (GraphPad Software Inc., San Diego, Calif.).

[2] = biological target: rat Fatty Acid Amide Hydrolase (FAAH) (Rattus norvegicus (Rat), UniProt P97612); test: FAAH in vitro fluorescence assay (AAMCA hydrolysis), rat enzyme; format: biochemical; details: for inhibition at 0.1 µM: read-out: rFAAH % inhibition at 100 nM, 100 nM (tier I)
How it was run: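 Rat FAAH, E. coli-expressed with groEL-groES chaperone, used as enriched membrane extract with 10 μM AAMCA in 50 mM HEPES, 1 mM EDTA, 0.1% BSA, pH 7.4 (1% DMSO final).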

[3] = human FAAH, read-out: hFAAH IC50

Chain of human Fatty Acid Amide Hydrolase (FAAH) (O00519 30-579): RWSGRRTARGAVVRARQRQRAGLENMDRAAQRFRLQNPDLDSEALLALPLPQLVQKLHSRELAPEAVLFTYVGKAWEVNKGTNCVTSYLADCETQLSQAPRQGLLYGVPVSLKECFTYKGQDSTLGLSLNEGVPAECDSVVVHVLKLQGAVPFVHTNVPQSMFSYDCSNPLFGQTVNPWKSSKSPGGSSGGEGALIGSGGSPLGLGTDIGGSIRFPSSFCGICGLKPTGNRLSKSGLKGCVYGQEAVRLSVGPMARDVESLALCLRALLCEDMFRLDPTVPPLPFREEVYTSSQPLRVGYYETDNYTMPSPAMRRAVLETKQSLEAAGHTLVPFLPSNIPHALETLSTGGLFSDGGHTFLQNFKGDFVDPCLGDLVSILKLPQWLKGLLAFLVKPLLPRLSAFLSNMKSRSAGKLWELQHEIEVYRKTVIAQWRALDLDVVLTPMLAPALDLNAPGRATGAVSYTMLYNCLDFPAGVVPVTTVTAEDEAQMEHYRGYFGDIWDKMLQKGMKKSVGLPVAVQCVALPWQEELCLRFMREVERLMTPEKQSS
Chain of rat Fatty Acid Amide Hydrolase (FAAH) (P97612 30-579): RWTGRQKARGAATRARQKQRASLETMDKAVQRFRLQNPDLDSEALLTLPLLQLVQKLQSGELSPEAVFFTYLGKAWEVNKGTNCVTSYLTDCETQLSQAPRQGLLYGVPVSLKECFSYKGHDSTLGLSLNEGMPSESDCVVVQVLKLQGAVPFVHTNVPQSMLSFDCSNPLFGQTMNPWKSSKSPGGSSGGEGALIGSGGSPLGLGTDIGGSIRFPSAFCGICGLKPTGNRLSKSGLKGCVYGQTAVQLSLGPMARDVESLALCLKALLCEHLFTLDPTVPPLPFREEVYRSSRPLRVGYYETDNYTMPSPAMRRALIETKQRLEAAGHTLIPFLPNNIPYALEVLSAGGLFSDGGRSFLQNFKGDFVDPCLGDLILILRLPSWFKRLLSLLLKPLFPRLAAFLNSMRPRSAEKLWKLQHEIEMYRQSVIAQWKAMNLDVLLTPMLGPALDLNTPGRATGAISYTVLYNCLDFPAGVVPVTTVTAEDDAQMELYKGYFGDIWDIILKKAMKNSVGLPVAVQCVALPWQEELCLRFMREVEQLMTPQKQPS

SMILES | inhibition at 0.1 µM ([2]; rat FAAH) | IC50 ([1]; read-out: hFAAH IC50) | IC50 ([2]; rat FAAH, read-out: rFAAH IC50) | IC50 [1, 3] | also measured
O=C(O)Cn1cc(-c2ccc(C(=O)NC3CCC(=Cc4cccc(Oc5ccc(C(F)(F)F)cn5)c4)CC3)cn2)cn1 (stereo not drawn) [Example 8.A-1, 2-[4-[5-[[4-[[3-[[5-(Trifluoromethyl)-2-pyridyl]oxy]phenyl]methylene]cyclohexyl]carbamoyl]-2-pyridyl]pyrazol-1-yl]acetic acid] | 15% |  |  |  | inhibition at 0.1 µM ([1]; human FAAH): 72%
O=C(NC1CCC(=Cc2cccc(Oc3ccc(C(F)(F)F)cn3)c2)CC1)c1cccnn1 (single isomer, unassigned; (-)) [Example 20.A-16, (−)-N-[4-[[3-[[5-(trifluoromethyl)-2-pyridyl]oxy]phenyl]methylene]cyclohexyl]pyridazine-3-carboxamide] |  | 4 nM | 115 nM |  | 
Cc1ccc(C(=O)NC2CCC(=Cc3cccc(Oc4ccc(C(F)(F)F)cn4)c3)CC2)cn1 (stereo not drawn) [Example 2.2, 6-Methyl-N-[4-[[3-[[5-(trifluoromethyl)-2-pyridyl]oxy]phenyl]-methylene]cyclohexyl]pyridine-3-carboxamide] |  | 5 nM | 28 nM |  | 
O=C(NC1CCC(=Cc2cccc(Oc3ccc(C(F)(F)F)cn3)c2)CC1)c1cncc(F)c1 (stereo not drawn) [Example 2.A-15, 5-Fluoro-N-[4-[[3-[[5-(trifluoromethyl)-2-pyridyl]oxy]phenyl]methylene]cyclohexyl]pyridine-3-carboxamide] |  |  |  |  | IC50 ([1]; hFAAH IC50): 5 nM; IC50 [2]: 188 nM
O=C(NC1CCC(=Cc2cccc(Oc3ccc(C(F)(F)F)cn3)c2)CC1)c1cn[nH]c1 (stereo not drawn) [Example 2.A-9, N-[4-[[3-[[5-(Trifluoromethyl)-2-pyridyl]oxy]phenyl]methylene]cyclohexyl]-1H-pyrazole-4-carboxamide] |  |  | 53 nM | 2 nM | 
Nc1cc(C(=O)NC2CCC(=Cc3cccc(Oc4ccc(C(F)(F)F)cn4)c3)CC2)cnc1Cl (stereo not drawn) [Example 10.1, 5-Amino-6-chloro-N-[4-[[3-[[5-(trifluoromethyl)-2-pyridyl]oxy]-phenyl]methylene]cyclohexyl]pyridine-3-carboxamide] |  |  |  |  | IC50 ([1]; hFAAH IC50): 1 nM; IC50 [2]: 6 nM
O=C(NC1CCC(=Cc2cccc(Oc3ccc(C(F)(F)F)cn3)c2)CC1)c1ncccn1 (stereo not drawn) [Example 2.A-16, N-[4-[[3-[[5-(Trifluoromethyl)-2-pyridyl]oxy]phenyl]methylene]cyclohexyl]pyrimidine-2-carboxamide] | 38% |  |  | 15 nM | 
O=C(NC1CCC(=Cc2cccc(Oc3ccc(C(F)(F)F)cn3)c2)CC1)c1cncc(Cl)c1 (stereo not drawn) [Example 2.A-32, 5-Chloro-N-[4-[[3-[[5-(trifluoromethyl)-2-pyridyl]oxy]phenyl]methylene]cyclohexyl]pyridine-3-carboxamide] | 40% |  |  | 6 nM | 
O=C(NC1CCC(=Cc2cccc(Oc3ccc(C(F)(F)F)cn3)c2)CC1)c1ccc(C(F)(F)F)nc1 (stereo not drawn) [Example 2.A-6, 6-(Trifluoromethyl)-N-[4-[[3-[[5-(trifluoromethyl)-2-pyridyl]oxy]phenyl]methylene]cyclohexyl]pyridine-3-carboxamide] | 37% |  |  | 102 nM | 
Cc1n[nH]c(C(C)C)c1C(=O)NC1CCC(=Cc2cccc(Oc3ccc(C(F)(F)F)cn3)c2)CC1 (stereo not drawn) [Example 2.A-38, 5-Isopropyl-3-methyl-N-[4-[[3-[[5-(trifluoromethyl)-2-pyridyl]oxy]phenyl]methylene]cyclohexyl]-1H-pyrazole-4-carboxamide] | 54% |  |  |  | inhibition at 0.1 µM ([1]; human FAAH): 20%
Cc1cc(C(=O)NC2CCC(=Cc3cccc(Oc4ccc(C(F)(F)F)c(C)n4)c3)CC2)cnc1N (stereo not drawn) [Example 2.E-23, 6-Amino-5-methyl-N-[4-[[3-[[6-methyl-5-(trifluoromethyl)-2-pyridyl]oxy]phenyl]methylene]cyclohexyl]pyridine-3-carboxamide] |  |  | 65 nM | 12 nM | 
O=C(NC1CCC(=Cc2cccc(Oc3ccc(C(F)(F)F)cn3)c2)CC1)c1ccc(-n2nccn2)nc1 (stereo not drawn) [Example 2.B-15, 6-(Triazol-2-yl)-N-[4-[[3-[[5-(trifluoromethyl)-2-pyridyl]oxy]phenyl]methylene]cyclohexyl]pyridine-3-carboxamide] |  |  | 9 nM | 3 nM | 
O=C(NC1CCC(=Cc2cccc(Oc3ccc(C(F)(F)F)cn3)c2)CC1)c1cnc2[nH]ccc2c1 (single isomer, unassigned; (-)) [Example 20.A-14, (−)-N-[4-[[3-[[5-(trifluoromethyl)-2-pyridyl]oxy]phenyl]methylene]cyclohexyl]-1H-pyrrolo[2,3-b]pyridine-5-carboxamide] |  | 1 nM | 8.6 nM |  | 
CCc1nc(Oc2cccc(C=C3CCC(NC(=O)c4ccc(N)nc4)CC3)c2)ccc1C(F)(F)F (stereo not drawn) [Example 2.E-24, 6-Amino-N-[4-[[3-[[6-ethyl-5-(trifluoromethyl)-2-pyridyl]oxy]phenyl]methylene]cyclohexyl]pyridine-3-carboxamide] | 47% |  |  | 34 nM | 
O=C(NC1CCC(=Cc2cccc(Oc3ccc(C(F)(F)F)cn3)c2)CC1)c1ccc(-n2cnnc2)nc1 (stereo not drawn) [Example 2.B-13, 6-(1,2,4-Triazol-4-yl)-N-[4-[[3-[[5-(trifluoromethyl)-2-pyridyl]oxy]phenyl]methylene]cyclohexyl]pyridine-3-carboxamide] |  | 2 nM | 14 nM |  | 
Nc1ncc(C(=O)NC2CCC(=Cc3cccc(Oc4ccc(C(F)(F)F)cn4)c3)CC2)cn1 (single isomer, unassigned; (-)) [Example 20.A-10] |  | 0.6 nM | 7 nM |  | 
CC(CO)Nc1ccc(C(=O)NC2CCC(=Cc3cccc(Oc4ccc(C(F)(F)F)cn4)c3)CC2)cn1 (stereo not drawn) [Example 5.A-8, 6-[(2-Hydroxy-1-methyl-ethyl)amino]-N-[4-[[3-[[5-(trifluoromethyl)-2-pyridyl]oxy]phenyl]methylene]cyclohexyl]pyridine-3-carboxamide] |  |  | 32 nM | 16 nM | 
O=C(NC1CCC(=Cc2cccc(Oc3ccc(C(F)(F)F)cn3)c2)CC1)c1cnccn1 (stereo not drawn) [Example 2.A-5, N-[4-[[3-[[5-(Trifluoromethyl)-2-pyridyl]oxy]phenyl]methylene]cyclohexyl]pyrazine-2-carboxamide] | 27% |  |  | 9 nM | 
Cc1cncc(C(=O)NC2CCC(=Cc3cccc(Oc4ccc(C(F)(F)F)cn4)c3)CC2)c1 (stereo not drawn) [Example 2.A-30, 5-Methyl-N-[4-[[3-[[5-(trifluoromethyl)-2-pyridyl]oxy]phenyl]methylene]cyclohexyl]pyridine-3-carboxamide] |  | 5 nM | 14 nM |  | 
O=C(NC1CCC(=Cc2cccc(Oc3ccc(C(F)(F)F)cn3)c2)CC1)c1c[nH]nc1C(F)(F)F (single isomer, unassigned; (-)) [Example 20.A-8, (−)-3-(Trifluoromethyl)-N-[4-[[3-[[5-(trifluoromethyl)-2-pyridyl]oxy]phenyl]methylene]cyclohexyl]-1H-pyrazole-4-carboxamide] |  | 1 nM | 30 nM |  | 
Cc1cnn(-c2ccc(C(=O)NC3CCC(=Cc4cccc(Oc5ccc(C(F)(F)F)cn5)c4)CC3)cn2)c1 (stereo not drawn) [Example 2.B-6, 6-(4-Methylpyrazol-1-yl)-N-[4-[[3-[[5-(trifluoromethyl)-2-pyridyl]oxy]phenyl]methylene]cyclohexyl]pyridine-3-carboxamide] |  |  | 21 nM | 7 nM | 
